Results reported in patent US11560395B2, “Azithromycin derivatives containing a phosphonium ion as anticancer agents” (Rising Tide Foundation, priority 2017, dated 2023).

Test system: MDA-231 cancer cells
Test: Inhibition of proliferation assay, cell confluence (IncuCyte live cell imaging)
Format: cell-based
Conditions: MDA-231 cells, concentration 10 uM; relative confluence normalised to time zero, images every 3 h over 4-5 d
Text: Inhibition of Proliferation Assay Cell Confluence The confluence value is a surrogate for cell proliferation and growth. The value is expressed as a percent confluence, which represents the fraction of culture dish-surface that is occupied by cells. As the number of cells in the dish increases over time due to proliferation, so will their coverage of that surface increase. Expansion of the cell population on the cell culture-dish surface and confluence have mostly a linear relationship until the cells on the plate surface begin to reach saturation or maximum density. Confluence is determined based on image analysis. Image based software can identify objects in the image field base on changes to pixel density in a grey scale image. The software can then assign a mask to those pixels within the object. Objects can be ‘gated’ out based on size and shape. To determine cell confluence, images of cells are first masked as objects. The surface area of the image that is masked is measured and compared to the total surface area of the culture dish surface to obtain a percent confluence. MDA-231 cancer cells were obtained from ATCC. Cells were cultured in Dulbecco's Modified Eagle Medium (DMEM) supplemented with 10% Fetal Bovine Serum (FBS), 2 mM Glutamax, 1 mM Non Essential Amino Acid (NEAA) solution and 1 mM sodium pyruvate. Compounds were dissolved in DMSO at 10 mM and diluted in cellular medium and tested at 10 μM (micromolar). Final DMSO concentrations were <0.1%. Images were acquired with an IncuCyte Live Cell Imaging microscopy (Essen Bioscience) at every 3 h under cell culture conditions with 10× objective over 4-5 d. Cell confluence was calculated from one field of view per well using the IncuCyte in-built algorithm. Relative confluence values were obtained by normalising each value to the time zero value in each sample.

Row | SMILES | % Confluence [%]
1 | CC[C@H]1OC(=O)[C@H](C)[C@@H](O[C@H]2C[C@@](C)(OC)[C@@H](O)[C@H](C)O2)[C@H](C)[C@@H](O[C@@H]2O[C@H](C)C[C@H](N(C)C)[C@H]2O)[C@](C)(O)C[C@@H](C)CN(CCCCCCCCCC[PH](c2ccccc2)(c2ccccc2)c2ccccc2)[C@H](C)[C@@H](O)[C@]1(C)O [Example 14, {10-[(2R,3S,4R,5R,8R,10R,11R,12S,13S,14R)-11-{[(2S,3R,4S,6R)-4-(dimethylamino)-3-hydroxy-6-methyloxan-2-yl]oxy}-2-ethyl-3,4,10-trihydroxy-13-{[(2R,4R,5S,6S)-5-hydroxy-4-methoxy-4,6-dimethyloxan-2-yl]oxy}-3,5,8,10,12,14-hexamethyl-15-oxo-1-oxa-6-azacyclopentadecan-6-yl]decyl}triphenylphosphonium iodide] | 10.1
2 | CC[C@H]1OC(=O)[C@H](C)[C@@H](O[C@H]2C[C@@](C)(OC)[C@@H](O)[C@H](C)O2)[C@H](C)[C@@H](O[C@@H]2O[C@H](C)C[C@H](N(C)C)[C@H]2O)[C@](C)(O)C[C@@H](C)CN(CCCCCCCCC[PH](c2ccccc2)(c2ccccc2)c2ccccc2)[C@H](C)[C@@H](O)[C@]1(C)O [Example 15, {9-[(2R,3S,4R,5R,8R,10R,11R,12S,13S,14R)-11-{[(2S,3R,4S,6R)-4-(dimethylamino)-3-hydroxy-6-methyloxan-2-yl]oxy}-2-ethyl-3,4,10-trihydroxy-13-{[(2R,4R,5S,6S)-5-hydroxy-4-methoxy-4,6-dimethyloxan-2-yl]oxy}-3,5,8,10,12,14-hexamethyl-15-oxo-1-oxa-6-azacyclopentadecan-6-yl]nonyl}triphenylphosphonium iodide] | 10.7
3 | CC[C@H]1OC(=O)[C@H](C)[C@@H](O)[C@H](C)[C@@H](O)[C@](C)(O)C[C@@H](C)CN(C(=O)CCCCCCCCCCCCC[P+](c2ccccc2)(c2ccccc2)c2ccccc2)[C@H](C)[C@@H](O)[C@]1(C)O [Example 16, {14-[(2R,3S,4R,5R,8R,10R,11R,12S,13S,14R)-2-ethyl-3,4,10,11,13-pentahydroxy-3,5,8,10,12,14-hexamethyl-15-oxo-1-oxa-6-azacyclopentadecan-6-yl]-14-oxotetradecyl}triphenylphosphonium hexafluorophosphate(V)] | 9.9
4 | CC[C@H]1OC(=O)[C@H](C)[C@@H](O[C@H]2C[C@@](C)(OC)[C@@H](O)[C@H](C)O2)[C@H](C)[C@@H](O[C@@H]2O[C@H](C)C[C@H](N(C)C)[C@H]2O)[C@](C)(O)C[C@@H](C)CN(C)[C@H](C)[C@@H](OC(=O)NCCCCCC[P+](c2ccccc2)(c2ccccc2)c2ccccc2)[C@]1(C)O.[Br-] [Example 17, (2R,3R,4R,5R,8R,10R,11R,12S,13S,14R)-11-{[(2S,3R,4S,6R)-4-(dimethylamino)-3-hydroxy-6-methyloxan-2-yl]oxy}-2-ethyl-3,10-dihydroxy-13-{[(2R,4R,5S,6S)-5-hydroxy-4-methoxy-4,6-dimethyloxan-2-yl]oxy}-3,5,6,8,10,12,14-heptamethyl-15-oxo-1-oxa-6-azacyclopentadecan-4-yl N-[6-(triphenylphosphoniumyl)hexyl]carbamate bromide] | 82.6
5 | CC[C@H]1OC(=O)[C@H](C)[C@@H](O[C@H]2C[C@@](C)(OC)[C@@H](O)[C@H](C)O2)[C@H](C)[C@@H](O[C@@H]2O[C@H](C)C[C@H](N(C)C)[C@H]2OC(C)=O)[C@](C)(O)C[C@@H](C)CN(C)[C@H](C)[C@@H](OC(=O)NCCCCCCCCCC[P+](c2ccccc2)(c2ccccc2)c2ccccc2)[C@]1(C)O.[Br-] [Example 18, (2S,3R,4S,6R)-4-(dimethylamino)-2-{[(2R,3R,4R,5R,8R,10R,11R,12S,13S,14R)-2-ethyl-3,10-dihydroxy-13-{[(2R,4R,5S,6S)-5-hydroxy-4-methoxy-4,6-dimethyloxan-2-yl]oxy}-3,5,6,8,10,12,14-heptamethyl-15-oxo-4-({[10-(triphenylphosphosphoniumyl)decyl]carbamoyl}oxy)-1-oxa-6-azacyclopentadecan-11-yl]oxy}-6-methyloxan-3-yl acetate bromide] | 9.6
